Nc1ccc(S(=O)(=O)O)cc1
solubility (mole fraction)
Details | in acetic acid | in acetone | in acetonitrile | in ethanol | in formic acid | in isopropanol | in methanol
278.15 K | – | 0.000291 | 0.000132 | 0.000213 | 0.00106 | 0.000253 | 0.000247
283.15 K | – | 0.000296 | 0.000144 | 0.000231 | 0.00116 | 0.00027 | 0.000263
288.15 K | 0.00204 | 0.000303 | 0.000165 | 0.000251 | 0.00129 | 0.000303 | 0.000284
293.15 K | 0.00217 | 0.00031 | 0.000178 | 0.000264 | 0.00139 | 0.000318 | 0.000299
298.15 K | 0.00227 | 0.000317 | 0.000195 | 0.000284 | 0.00152 | 0.000348 | 0.000318
303.15 K | 0.0024 | 0.000324 | 0.000214 | 0.0003 | 0.00166 | 0.000373 | 0.000342
308.15 K | 0.00252 | 0.000332 | 0.000235 | 0.000323 | 0.00181 | 0.000403 | 0.000362
313.15 K | 0.00264 | 0.000338 | 0.000255 | 0.000338 | 0.00196 | 0.000429 | 0.000383
318.15 K | 0.00277 | 0.000346 | 0.000274 | 0.000363 | 0.00213 | 0.000461 | 0.000403
323.15 K | 0.00291 | 0.000353 | 0.000301 | 0.000385 | 0.00231 | 0.000494 | 0.000432
328.15 K | 0.00304 | 0.00036 | 0.000324 | 0.000403 | 0.00247 | 0.000525 | 0.00045
